Like-named read-outs stand apart in the source and are kept apart here.
Columns and labels:
Assay type in all cases: biochemical
[1] = target: human 100 kDa cholesterol esterase; assay: Inhibition of triolein hydrolysis by cholesterol esterase; details: table 3; triolein used instead of cholesterol oleate
Method: (§1) Alginic acid from Macrocystis pyrifera (kelp) was dissolved in water at a concentration of 1 mg/ml. This stock solution was used to prepare various polysaccharide concentrations down to 10^-5 mg/ml. Human pancreatic cholesterol esterase was purified as described by Bosner et al., Proc Nat'l. Acad. Sci., 85, 7438 (1988). To measure cholesterol esterase inhibition by alginic acid, 50 μl of cholesterol esterase (10 μg/ml). 75 μl of phosphatidylcholine vesicles containing cholesteryl ^14 C-oleate (1 mM 2,000 CPM/nmole). 25 μl of 100 mM taurocholate, 120 μl of 150 mM Tris. pH 7.5 and 30 μl of test alginic acid solution were incubated at 37° C. for fifteen minutes. The assay was quenched by placing the reaction vessels in a 4° C. ice bath and by adding 0.6 ml of 0.3 N NaOH and 3 ml of benzene/chloroform/methanol (1 0/1.2/0 5). The quenched reactions were vortexed for 30 seconds, centrifuged at 3,000 g for 15 minutes and 1 ml of the upper aqueous phase was added to 7 ml of Aquasol-2 (DuPont) with 0.025 ml of 6 N HCl. These mixtures were vortexed for one minute and counted for ^14 C-oleate The counts were compared to a sample which contained cholesterol esterase but no alginic acid to determine the percentage of inhibition.
(The same assay procedure was used as described in Part I, only triolein was used instead of cholesterol oleate.) As shown in the table below, the IC50 for inhibition of triolein hydrolysis is nearly the same as that for cholesteryl oleate hydrolysis.

[2] = target: Human pancreatic cholesterol esterase; assay: Inhibition of cholesteryl 14C-oleate hydrolysis by cholesterol esterase; details: for IC50 cholesterol esterase inhibition: 37° C., fifteen minutes, pH 7.5
Method: This stock solution was used to prepare various polysaccharide concentrations down to 10^-5 mg/ml. […] 75 μl of phosphatidylcholine vesicles containing cholesteryl ^14 C-oleate (1 mM 2,000 CPM/nmole). 25 μl of 100 mM taurocholate, 120 μl of 150 mM Tris. pH 7.5 and 30 μl of test alginic acid solution were incubated at 37° C. for fifteen minutes. The assay was quenched by placing the reaction vessels in a 4° C. ice bath and by adding 0.6 ml of 0.3 N NaOH and 3 ml of benzene/chloroform/methanol (1 0/1.2/0 5). The quenched reactions were vortexed for 30 seconds, centrifuged at 3,000 g for 15 minutes and 1 ml of the upper aqueous phase was added to 7 ml of Aquasol-2 (DuPont) with 0.025 ml of 6 N HCl. These mixtures were vortexed for one minute and counted for ^14 C-oleate The counts were compared to a sample which contained cholesterol esterase but no alginic acid to determine the percentage of inhibition.

cholesterol esterase = assay: Cholesterol esterase inhibition by water extract of baked muffin (stability under baking conditions); details: qualitative statement
Method: as §1
The sulfated polysaccharides described here retain their inhibitory activity for prolonged periods at elevated temperatures. […]

[3] = table 2, summary of sulfated polysaccharides, read-out: IC50
[4] = table 3, cholesteryl oleate hydrolysis, read-out: IC50 (nM) Cholesteryl Oleate
[5] = cholesteryl 14C-oleate substrate
[6] = cholesteryl 14C-oleate substrate, molar value assumes a molecular weight (alginic acid 240 kDa, pectin 20 kDa, chitin 300 kDa, cellulose sulfate 500 kDa), read-out: IC50 cholesterol esterase inhibition

| Substance | IC50 [1] | IC50 [2, 3] | IC50 [2, 4] | IC50 cholesterol esterase inhibition [2, 5] | IC50 [2, 6] | Inhibition of cholesterol esterase (in words) ([2]; qualitative statement) | Enhancement Factor ([2]; table 1, enhancement of inhibition relative to native alginic acid (fold)) | Retention of inhibitory activity at elevated temperatures / stability under baking conditions (in words) (cholesterol esterase) |
| --- | --- | --- | --- | --- | --- | --- | --- | --- |
| Chitin Sulfate | 0.14 nM | 0.06 nM | 0.06 nM | – | – | – | – | – |
| Chitosan Sulfate | 0.16 nM | 0.03 nM | 0.03 nM | 0.015 µg/mL | 0.03 nM | – | – | – |
| pectin [reference compound] | – | – | – | – | – | does not inhibit cholesterol esterase | – | – |
| Alginic acid [reference compound] | 42 nM | – | 20 nM | 4 µg/mL | 20 nM | – | 1.0 | – |

Results, then the substance that gave them:

| IC50 [1] | IC50 [2, 3] | IC50 [2, 4] | IC50 cholesterol esterase inhibition [2, 5] | IC50 [2, 6] | Inhibition of cholesterol esterase (in words) ([2]; qualitative statement) | Enhancement Factor ([2]; table 1, enhancement of inhibition relative to native alginic acid (fold)) | Retention of inhibitory activity at elevated temperatures / stability under baking conditions (in words) (cholesterol esterase) | Substance |
| --- | --- | --- | --- | --- | --- | --- | --- | --- |
| – | 0.02 nM | 0.02 nM | – | 0.02 nM | – | – | – | Dextran Sulfate |
| 0.06 nM | 0.02 nM | 0.02 nM | – | 0.02 nM | – | – | stable under baking conditions | Cellulose Sulfate |

From patent US5017565A, “Use of sulfated polysaccharides to inhibit pancreatic cholesterol esterase” (priority 1989, dated 1991)
